Test results taken from patent US20240374739A1, “BILE ACID CONJUGATE” (Curtin University, priority 2021, published 2024).
Entries after “also recorded” stand apart in the source; their conditions may differ.

Legend:
[1] = test system: Rats subjected to sub-concussion (SC); assay: Beam walk test, brain injury (sub-concussion) study (Experimental Example 3); type: in vivo
Source text: Repeated sub-concussive head impacts are reported to impair psychomotor function. Rats were subjected to sham procedure, sub-concussion (SC) with control diet (AlN93M), SC with probucol, SC with aged garlic extract (AGE), or SC with HA-1 for 12 weeks.
Both rotarod and beam walk tests assess neuromotor function. On beam walk, the higher the slips show the more impairment. On rotarod, the lower the latency indicates the more impairment.

diabetic db/db mice [2] = assay: Small intestinal apoB and Aβ in diabetic db/db mice; type: in vivo
Source text: (§1) In this study, 4-5 week old diabetic db/db mice were put onto a diet containing probucol 0.1% (w/w) or HA-1 0.2% (w/w) for either 10 or 24 weeks, till the age of 14 or 28 weeks, respectively. Passive avoidance test was used to assess short-term memory. Subsequently, the mice were sacrificed to obtain plasma and brain tissue samples for further analyses.

OC-1 cells = assay: Cobalt chloride hypoxia assay; type: cell-based; details: cells pre-treated with CoCl2 at 100 μM for 24 hours, microscopic examination
Experimental: This assay is used to determine whether an intervention can reverse hypoxic-induced cell death brought about by cobalt chloride. For this assay, cells are pre-treated with CoCl2 at 100 μM for 24 hours, followed by microscopic examination of cell morphology and viability.

[3] = test system: Amniotic membrane mesenchymal stem cells (AM-MSCs); assay: Cytotoxicity study by MTT cell viability assay; type: cell-based, human; details: 10-30 μM, 24 hours
Experimental: (§2) Amniotic membrane mesenchymal stem cells (AM-MSCs) were incubated with different concentrations (10, 15, 20, 25 and 30 uM, and DMSO control) of (A) probucol, (B) SPQ, (C) HA-1, and (D) DMSO for 24 hours. D1=DMSO control for 10 μM, D2=DMSO control for 20 μM (p<0.05; *p<0.05, **p<0.001, ***p<0.0001, ns=non-significant, n=3).
as §2, with “HA-1 and,” for “HA-1, and”

[4] = test system: rat model of repeated sub-concussion; assay: Blood-brain barrier integrity (IgG extravasation), rat model of repeated sub-concussion; type: in vivo, Female PVG rats; details: rats, 12-week repeated sub-concussion
Source text: Female PVG rats aged 5-7 weeks were used. Under complete anaesthesia with isoflurane, a 25 g weight was dropped onto lambda of the skull from a 1 m height. This was repeated consecutively for 10 times per procedure. The procedure was repeated 3 times per week (i.e., Monday, Wednesday, Friday) for the duration of 12 weeks. Sham group rats received the same procedure without the weight drops. The probucol treatment group received probucol which was supplemented into the diet at 0.1% w/w. The HA-1 treatment group received HA-1 also in the diet at 0.2% w/w for the entire duration of the study.
The rats were then sacrificed to obtain brain tissue for further analyses.
The increase of IgG extravasation in SC rats indicates disruption of the BBB, allowing blood-borne IgG to leak into the brain.

[5] = test system: Neurodegenerated cells (Alzheimer's disease model); assay: Acetylcholine (ACh) release, Amplex Red reagent-based assay, Alzheimer's disease model; type: cell-based, human; details: probucol 20 μM, SPQ 10 μM, HA-1 10 μM, rivastigmine 2 μM, 24 hours
Experimental: (§3) Perinatal tissue derived human stem cell model for Alzheimer's disease (AD) was prepared using proprietary protocols to test the effect of new drug entities. Drug treatment was for 24 h in all the assays.
Acetylcholinesterase (AChE) that regulates hydrolysis of acetylcholine (ACh) in the brain, is an important target for treatment of Alzheimer's disease (AD), a feature of which is ACh deficiency. We assayed for AChE activity and ACh release in control, neurodegenerated AD and drug treated AD cells.

[6] = test system: Neurodegenerated cells (perinatal tissue derived human stem cell model for Parkinson's disease); assay: Mitochondrial membrane potential by TMRE assay, Parkinson's disease model; type: cell-based; details: PD model; probucol 20 μM, SPQ 10 μM, HA-1 10 μM, L-Dopa 50 μM, 24 hours
Experimental: Perinatal tissue derived human stem cell model for Parkinson's disease (PD) was prepared using proprietary protocols to test the effect of new drug entities. Drug treatment was for 24 hours in all the assays.
Dysfunctional mitochondria and alterations in the mitochondrial membrane potential promote neurodegeneration seen in Parkinson's disease. For assessing the changes in mitochondrial membrane potential, we used TMRE (tetramethylrhodamine ethyl ester) to quantify the changes in live cells by fluorimetry.
Neurodegenerated cells were incubated with probucol (20 μM), SPQ (10 μM), HA-1 (10 μM) and L-Dopa (50 μM) for 24 hours (p<0.05; *p<0.05, **p<0.001, ***p<0.0001, ns=non-significant, n=3).

diabetic db/db mice [7] = assay: Diabetic phenotype: plasma glucose, triglycerides, insulin, cholesterol in diabetic db/db mice; type: in vivo; details: for plasma cholesterol: 14 and 28 weeks of age (FIGS. 23G and 23H)
Source text: as §1
Elevation in plasma glucose, triglycerides and insulin are typical signs of diabetes, with cholesterol to lesser extent. Levels of plasma glucose, plasma triglyceride, plasma insulin, and plasma cholesterol levels were measured at 14 weeks of age and at 28 weeks of age (FIG. 23) (*p<0.05, **p<0.01, ***p<0.001, ****p<0.0001, n=12).

[8] = test system: Neurodegenerated cells (perinatal tissue derived human stem cell model for Alzheimer's disease); assay: Lactate dehydrogenase (LDH) assay, in vitro model of Alzheimer's disease; type: cell-based; details: probucol 20 μM, SPQ 10 μM, HA-1 10 μM, rivastigmine 2 μM, 24 hours; compared to ND cells
Experimental: as §3
LDH leakage is a well characterised marker of cellular membrane damage and increase in indicative of lactate deficit, is a hallmark of AD.

diabetic db/db mice [9] = assay: Passive Avoidance Test in diabetic db/db mice (Experimental Example 5); type: in vivo; details: administered from 5 weeks of age, tested at 14 weeks
Experimental: Cognitive function in diabetic db/db mice was tested with Passive Avoidance and Novel Object Recognition tests. For both tests, the higher the value, the better the memory.
The mice were administered with either probucol, HA-1 or apoCIII antisense from 5 weeks of age, and cognitive performance was tested at 14 weeks of age.

[10] = sub-concussion, 1, 2 and 3 cm beam, at 12 weeks
[11] = sub-concussion, 2 cm beam, after 6 weeks
[12] = Experimental Example 1 (FIG. 1)
[13] = Experimental Example 2 (FIG. 8)
[14] = 14 weeks of age, probucol 0.1% (w/w), HA-1 0.2% (w/w) in diet

CC(C)(Sc1cc(C(C)(C)C)c(O)c(C(C)(C)C)c1)Sc1cc(C(C)(C)C)c(O)c(C(C)(C)C)c1 [probucol, 2,6-ditert-butyl-4-[2-(3,5-ditert-butyl-4-hydroxyphenyl)sulfanylpropan-2-ylsulfanyl]phenol]
number of slips in beam walk test [1, 10]: did not show significant preventative effects
number of slips in beam walk test [1, 11]: did not indicate any beneficial effects
small intestinal Aβ (diabetic db/db mice [2]; 14 weeks of age): significantly attenuated
small intestinal apoB (diabetic db/db mice [2]; 14 weeks of age): no significant reduction
small intestinal Aβ (diabetic db/db mice [2]; 28 weeks of age): significantly attenuated
cell morphology (OC-1 cells): normal morphology
cytotoxicity by MTT cell viability assay [3, 12]: not toxic to the cells
cytotoxicity by MTT cell viability assay [3, 13]: not toxic to the cells
IgG extravasation in cortex (CTX) [4]: some reduction in the CTX IgG extravasation
IgG extravasation in hippocampal formation (HPF) [4]: no protection against BBB disruption in HPF
Acetylcholine (ACh) release / level [5]: increase/maintain the level of acetylcholine (ACh)
mitochondrial membrane potential (TMRE) [6]: maintain the mitochondrial membrane potential
plasma cholesterol (diabetic db/db mice [7]): no beneficial effects on plasma cholesterol
plasma insulin (diabetic db/db mice [7]; 14 weeks of age): significantly reduced
plasma triglycerides (diabetic db/db mice [7]; 14 weeks of age): significantly attenuated plasma triglycerides
plasma / blood glucose (diabetic db/db mice [7]; [14]): no significant effects
plasma / blood glucose (diabetic db/db mice [7]; 28 weeks of age): significantly reduced blood glucose
plasma insulin (diabetic db/db mice [7]; 28 weeks of age): lost the ameliorative effects on insulin
plasma triglycerides (diabetic db/db mice [7]; 28 weeks of age): significantly reduced plasma triglycerides
LDH activity / LDH release [8]: decreased significantly LDH activity
Passive Avoidance Test latency (short-term memory) (diabetic db/db mice [9]): completely prevented the memory loss

CC1(C)SC2(C=C(C(C)(C)C)C(=O)C(C(C)(C)C)=C2)C2(C=C(C(C)(C)C)C(=O)C(C(C)(C)C)=C2)S1 [SPQ, 2,4,9,11-tetrakis(1,1-dimethylethyl)-14,14-dimethyl-13,15-dithiadispiro[5.0.5.3]pentadeca-1,4,8,11-tetraene-3,10-dione]
cytotoxicity by MTT cell viability assay [3, 12]: not toxic to the cells
cytotoxicity by MTT cell viability assay [3, 13]: not toxic to the cells
Acetylcholine (ACh) release / level [5]: increase/maintain the level of acetylcholine (ACh)
mitochondrial membrane potential (TMRE) [6]: enhanced restoration of the mitochondrial membrane potential
LDH activity / LDH release [8]: decreased significantly LDH activity

CC(=O)O[C@@H]1CC[C@@]2(C)[C@H](CC[C@@H]3[C@@H]2CC[C@]2(C)[C@@H]([C@H](C)CCC(=O)Oc4c(C(C)(C)C)cc(SC(C)(C)Sc5cc(C(C)(C)C)c(O)c(C(C)(C)C)c5)cc4C(C)(C)C)CC[C@@H]32)C1 [HA-1, 2,6-di-tert-butyl-4-((2-((3,5-di-tert-butyl-4-hydroxyphenyl)thio)propan-2-yl)thio)phenyl (4R)-4-[(3R,5R,8R,9S,10S,13R,14S,17R)-3-acetoxy-10,13-dimethyl-2,3,4,5,6,7,8,9,11,12,14,15,16,17-tetradecahydro-1H-cyclopenta[a]phenanthren-17-yl]pentanoate]
number of slips in beam walk test [1, 10]: did not show significant preventative effects
number of slips in beam walk test [1, 11]: significant reduction in slips
small intestinal Aβ (diabetic db/db mice [2]; 14 weeks of age): comparable or superior effects
small intestinal apoB (diabetic db/db mice [2]; 14 weeks of age): significantly attenuated
small intestinal Aβ (diabetic db/db mice [2]; 28 weeks of age): comparable or superior effects
small intestinal apoB (diabetic db/db mice [2]; 28 weeks of age): no longer seen
cell morphology (OC-1 cells): optimal morphology
IgG extravasation in cortex (CTX) [4]: more effective than probucol in attenuating BBB disruption
IgG extravasation in hippocampal formation (HPF) [4]: more effective than probucol in attenuating BBB disruption
Acetylcholine (ACh) release / level [5]: increase/maintain the level of acetylcholine (ACh)
mitochondrial membrane potential (TMRE) [6]: maintain the mitochondrial membrane potential
plasma cholesterol (diabetic db/db mice [7]): no beneficial effects on plasma cholesterol
plasma insulin (diabetic db/db mice [7]; 14 weeks of age): significantly reduced
plasma triglycerides (diabetic db/db mice [7]; 14 weeks of age): significantly attenuated plasma triglycerides
plasma / blood glucose (diabetic db/db mice [7]; [14]): modest decrease in blood glucose
plasma / blood glucose (diabetic db/db mice [7]; 28 weeks of age): significantly reduced blood glucose with HA-1 presenting greater effects
plasma insulin (diabetic db/db mice [7]; 28 weeks of age): lost the ameliorative effects on insulin
plasma triglycerides (diabetic db/db mice [7]; 28 weeks of age): significantly reduced plasma triglycerides
LDH activity / LDH release [8]: decreased significantly LDH activity
Passive Avoidance Test latency (short-term memory) (diabetic db/db mice [9]): completely restore the memory; also recorded: equivalent latency to Neg control and probucol group mice
